Data set [1] has as its system Enterococcus faecalis ATCC29212. As to the kind of experiment: MIC determination in broth microdilution assay. It counts as cell-based. Particulars: D: Enterococcus faecalis ATCC29212; MH-broth microdilution.
For data set [2], the system named is Streptococcus pneumoniae #998 (clinical isolate). Kind of data set: MIC determination in broth microdilution assay. Format: cell-based. The settings on record: F: Streptococcus pneumoniae #998 clinical isolate; MH-broth microdilution.
In data set [3] the test system is panel of 10 different non-fastidious bacteria growing aerobically. Kind of data set: Activity against non-fastidious bacteria (panel, discussed in words). Particulars: Gram-positive non-fastidious bacteria; comparison with Licochalcone A. Format: cell-based.
The subject of data set [4] is panel of anaerobic bacteria (Bacteroides fragilis, Clostridium perfringens, Clostridium difficele). It counts as cell-based. Particulars: single concentration of compound (100 μM); agar dilution.
The test system of data set [5] is Staphylococcus intermedius #2357 (clinical isolate from the Copenhagen area). Kind of data set: MIC determination in broth microdilution assay. It counts as cell-based. Particulars: C: Staphylococcus intermedius #2357 clinical isolate; MH-broth microdilution.
The test system of data set [6] is panel of six strains Helicobacter pylori, includes strains resistant to metronidazole. As to the kind of experiment: MIC determination against Helicobacter pylori (agar dilution). The settings on record: 72 h, read-out: MICs against Helicobacter pylori.
Data set [7] in a line: Pharmacokinetic studies, intravenous, mice. It counts as in vivo, female NMRI mice. As for the experimental part:
Evaluation of the pharmacokinetic properties of the compounds was done using female NMRI mice (weighing app. 30 g). Test articles were administrated intravenously and Samples of serum were taken at defined time-points. Standards and QC-samples in plasma were prepared and the serum concentrations of the test compounds quantified by HPLC-MS. Prior to analysis, proteins were precipitated by deluding the samples (1:1) (v/v) with 100% acetonitrile followed by centrifugation at 14,000 rpm in 10 min. The supernatant was used for the analysis. A Waters Alliance HPLC-system (Milford, Mass., USA) was coupled to a Quatro Micro triple quadropl mass spectrometer (Micromass, Manchester, UK) operating in positive (ESI) mode. Separation was performed on a XTerra MS C18 column (150*2.1 mm I.D., 3,5 μm particle size) (Waters Milford, Mass., USA). Mobile phase A: 0.1% (v/v) formic acid or 10 mM ammonium acetate pH-adjusted to 9.5 in MilliQ-water, mobile phase B: 100% methanol. The gradient was as follows: 0 min=70% A-30% B, 0-10 min. a linear gradient to 10% A and 90% B this was maintained till 11 min, 11-13 linear gradient to 70% A and 30% B this was maintained till 18 min. The flow rate was 0.20 ml/min, injection volume 10 μl.

Data set [8] has as its system Eschericia coli ATCC25922. Kind of data set: MIC determination in broth microdilution assay. It counts as cell-based. Particulars: G: Eschericia coli ATCC25922; MH-broth microdilution.
For data set [9], the system named is Staphylococcus aureus ATCC33591 (resistant to methicillin). Kind of data set: MIC determination in broth microdilution assay. It counts as cell-based. The settings on record: B: Staphylococcus aureus ATCC33591 (resistant to methicillin); MH-broth microdilution.
The nature of data set [10]: MIC of D-001 quoted in the pharmacokinetic profile (strain not named). It counts as cell-based.
The subject of data set [11] is Staphylococcus aureus ATCC29213. As to the kind of experiment: MIC determination in broth microdilution assay. Format: cell-based. Particulars: A: Staphylococcus aureus ATCC29213; MH-broth microdilution.
For data set [12], the system named is Enterococcus faecium #17501 (vancomycin-resistant clinical isolate). Kind of data set: MIC determination in broth microdilution assay. The settings on record: E: Enterococcus faecium #17501 vancomycin-resistant clinical isolate; MH-broth microdilution. It counts as cell-based.
Data set [13] relates to S. aureus ATCC29213. As to the kind of experiment: Killing curve determination (time-kill curve). Format: cell-based, Staphylococcus aureus.

Consider `COc1ccc(C(=O)/C=C/c2cc(-c3cc(C)cc(C)c3)ccc2OCC[N+](C)(C)C)c(Cl)c1.[I-]` [D-001, (2-{3-[3-(2-Chloro-4-methoxy-phenyl)-3-oxo-propenyl]-3′,5′-dimethyl-biphenyl-4-yloxy}-ethyl)-trimethyl-ammonium; iodide], for which the MIC was 4.7 µM in [1]; 18.8 µM in data set [2]; 2.4 µM in [5]; 50 to 100 µM in [6]; 37.5 µM in data set [8]; 4.7 µM in [9]. In addition, the MIC result in data set [10] is “approximately 1 μg/mi”; in [11], 2.4 µM; in data set [12], 4.7 µM. Besides, the “activity against pathogenic Gram-positive bacteria (in words)” value in data set [3] is given as “increased potency”. Moreover, the “activity against anaerobic bacteria” value in [4] is listed as “activity against all microorganisms within the test panel”. The peak concentration (Cmax) in data set [7] (female, NMRI, mouse, serum, iv, single i.v. dose of 5 mg/ml) was found to be 126 µg/mL. Also, the volume of distribution result in data set [7] (i.v., as indicated by the plasma concentration) is reported as “very low”.
Consider `CCCCN(CCCC)c1ccc(/C=C/C(=O)c2cccc(C[N+](C)(C)C)c2)cc1` [D-005, {3-[3-(4-Dibutylamino-phenyl)-acryloyl]-benzyl}-trimethyl-ammonium], for which the MIC in [1] came to 18.8 µM; in [2], 37.5 µM; in data set [5], 4.7 µM; in [8], 75 µM; in data set [9], 9.4 µM; in data set [11], 4.7 µM. In [12], the MIC amounted to 9.4 µM. The “bactericidal activity (CFU counts per ml in time-kill curve)” value in data set [13] (concentrations above the MIC) is given as “bactericidal”. Also, the “dependence of the bactericidal action” value in [13] (time-kill curve) is listed as “primarily dependent on the concentration of the test compound”. Further, in data set [3], the “activity against pathogenic Gram-positive bacteria (in words)” value is given as “increased potency”.
